US10647679B2, “N-methyl-D-aspartate receptor (NMDAR) potentiators, pharmaceutical compositions, and uses related thereto” (Emory University, priority 2015, dated 2020)
Like-named read-outs stand apart in the source and are kept apart here.

How the values were obtained:
Type in all cases: cell-based
[1] = target: T1, recombinant rat GluN1/GluN2C (Rattus norvegicus, UniProt Q00961); test: Two-electrode voltage-clamp (TEVC) recordings in Xenopus laevis oocytes, GluN1/GluN2C; details: for I30 μM/Icontrol (mean ± SEM, %) GluN2C: 30 μM compound, Tables 5-7
T1 construct: expressed in transfected cells; host or cells: Xenopus laevis oocytes (Ecocyte) injected with in vitro transcribed cRNA
Method: (§1) Data are from between 3-26 oocytes from 2-5 frogs for each compound and receptor tested.
(§2) Two-electrode voltage-clamp recordings were performed in Xenopus laevis oocytes (Ecocyte) expressing recombinant rat GluN1/GluN2A, GluN1/GluN2B, GluN1/GluN2C, GluN1/GluN2D. cRNA was transcribed in vitro (Ambion), diluted with nuclease free water, and injected at a ratio of 1:2 GluN1:GluN2 (5-10 ng total cRNA). The oocytes were kept in Barth's solution comprised of (in mM) 88 NaCl, 5 Tris-HCl, 2.4 NaHCO3, 1 KCl, 0.84 MgSO4, 0.41 CaCl2, and 0.33 Ca(NO3)2 at pH 7.4 at 15-17° C. for two to five days before experiments. Oocytes were placed into a perfusion chamber and continually washed with recording solution containing (in mM) 90 NaCl, 1.0 KCl, 0.5 BaCl2, 0.005 EDTA, and 10 HEPES at pH 7.4 (23° C.). Voltage clamp recordings were conducted at a holding potential of −40 mV. All compounds were made as 20 mM stock solutions in DMSO and dissolved to reach the final concentration in recording solution. Final DMSO content was 0.05-0.5% (vol/vol). Some oocytes expressing GluN1/GluN2A were pretreated with […] BAPTA-AM for 10 minutes or injected with […] of 2 mM K-BAPTA to prevent gradual run-up of the current response.

[2] = target: T2, recombinant rat GluN1/GluN2B (Rattus norvegicus, UniProt Q00960); test: Two-electrode voltage-clamp (TEVC) recordings in Xenopus laevis oocytes, GluN1/GluN2B; details: for I30 μM/Icontrol (mean ± SEM, %) GluN2B: 30 μM compound, Tables 5-7
T2 construct: expressed in transfected cells; host or cells: Xenopus laevis oocytes (Ecocyte) injected with in vitro transcribed cRNA
T2 sequence (Q00960 27-1482, other chains not shown): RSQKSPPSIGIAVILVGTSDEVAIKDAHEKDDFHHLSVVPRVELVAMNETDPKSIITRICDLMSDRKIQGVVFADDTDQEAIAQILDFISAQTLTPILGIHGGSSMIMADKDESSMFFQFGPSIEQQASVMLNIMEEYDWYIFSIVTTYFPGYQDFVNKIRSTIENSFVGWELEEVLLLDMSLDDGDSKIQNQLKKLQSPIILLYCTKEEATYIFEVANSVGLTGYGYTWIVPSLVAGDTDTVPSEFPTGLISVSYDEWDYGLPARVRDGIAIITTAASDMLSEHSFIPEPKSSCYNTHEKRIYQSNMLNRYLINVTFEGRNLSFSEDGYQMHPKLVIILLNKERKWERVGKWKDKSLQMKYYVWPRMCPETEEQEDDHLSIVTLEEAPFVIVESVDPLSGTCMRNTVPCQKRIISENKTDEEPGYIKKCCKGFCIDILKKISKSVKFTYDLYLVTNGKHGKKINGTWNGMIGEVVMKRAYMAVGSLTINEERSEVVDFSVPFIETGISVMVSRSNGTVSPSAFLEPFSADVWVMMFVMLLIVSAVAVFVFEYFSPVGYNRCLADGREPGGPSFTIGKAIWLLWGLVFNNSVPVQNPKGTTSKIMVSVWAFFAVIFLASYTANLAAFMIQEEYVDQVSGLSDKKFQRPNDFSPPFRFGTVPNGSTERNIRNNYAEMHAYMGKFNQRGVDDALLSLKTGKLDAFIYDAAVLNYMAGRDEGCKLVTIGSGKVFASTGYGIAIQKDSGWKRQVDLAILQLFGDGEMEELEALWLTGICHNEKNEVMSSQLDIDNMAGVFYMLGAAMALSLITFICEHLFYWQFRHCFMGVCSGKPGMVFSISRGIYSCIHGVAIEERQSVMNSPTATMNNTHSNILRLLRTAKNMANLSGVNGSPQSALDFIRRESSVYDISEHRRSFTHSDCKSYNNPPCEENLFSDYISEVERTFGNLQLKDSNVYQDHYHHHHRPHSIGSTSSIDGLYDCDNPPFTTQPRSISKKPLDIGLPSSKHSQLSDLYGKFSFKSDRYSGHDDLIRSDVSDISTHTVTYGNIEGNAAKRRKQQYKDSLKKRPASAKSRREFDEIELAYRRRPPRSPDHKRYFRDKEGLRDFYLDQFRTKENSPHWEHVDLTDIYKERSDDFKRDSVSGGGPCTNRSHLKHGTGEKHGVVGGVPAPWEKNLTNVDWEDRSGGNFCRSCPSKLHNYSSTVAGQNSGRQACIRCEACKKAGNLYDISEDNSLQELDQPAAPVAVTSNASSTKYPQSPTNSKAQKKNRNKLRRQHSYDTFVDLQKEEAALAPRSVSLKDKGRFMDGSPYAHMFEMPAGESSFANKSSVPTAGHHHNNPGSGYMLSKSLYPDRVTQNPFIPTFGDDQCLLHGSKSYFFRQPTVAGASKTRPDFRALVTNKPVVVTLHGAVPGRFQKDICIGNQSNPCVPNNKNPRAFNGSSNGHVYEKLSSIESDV
Method: as §1, §2

[3] = target: T3, recombinant rat GluN1/GluN2B (Rattus norvegicus, UniProt P35439+Q00960); test: as above
T3 construct: expressed in transfected cells; host or cells: Xenopus laevis oocytes (Ecocyte) injected with in vitro transcribed cRNA
T3 sequence (Q00960 27-1482, other chains not shown): as above
Method: as §1, §2

[4] = target: T4, recombinant rat GluN1/GluN2D (Rattus norvegicus, UniProt Q62645); test: Two-electrode voltage-clamp (TEVC) recordings in Xenopus laevis oocytes, GluN1/GluN2D; details: for I30 μM/Icontrol (mean ± SEM, %) GluN2D: 30 μM compound, Tables 5-7
T4 construct: expressed in transfected cells; host or cells: Xenopus laevis oocytes (Ecocyte) injected with in vitro transcribed cRNA
T4 sequence (Q62645 28-1323, other chains not shown): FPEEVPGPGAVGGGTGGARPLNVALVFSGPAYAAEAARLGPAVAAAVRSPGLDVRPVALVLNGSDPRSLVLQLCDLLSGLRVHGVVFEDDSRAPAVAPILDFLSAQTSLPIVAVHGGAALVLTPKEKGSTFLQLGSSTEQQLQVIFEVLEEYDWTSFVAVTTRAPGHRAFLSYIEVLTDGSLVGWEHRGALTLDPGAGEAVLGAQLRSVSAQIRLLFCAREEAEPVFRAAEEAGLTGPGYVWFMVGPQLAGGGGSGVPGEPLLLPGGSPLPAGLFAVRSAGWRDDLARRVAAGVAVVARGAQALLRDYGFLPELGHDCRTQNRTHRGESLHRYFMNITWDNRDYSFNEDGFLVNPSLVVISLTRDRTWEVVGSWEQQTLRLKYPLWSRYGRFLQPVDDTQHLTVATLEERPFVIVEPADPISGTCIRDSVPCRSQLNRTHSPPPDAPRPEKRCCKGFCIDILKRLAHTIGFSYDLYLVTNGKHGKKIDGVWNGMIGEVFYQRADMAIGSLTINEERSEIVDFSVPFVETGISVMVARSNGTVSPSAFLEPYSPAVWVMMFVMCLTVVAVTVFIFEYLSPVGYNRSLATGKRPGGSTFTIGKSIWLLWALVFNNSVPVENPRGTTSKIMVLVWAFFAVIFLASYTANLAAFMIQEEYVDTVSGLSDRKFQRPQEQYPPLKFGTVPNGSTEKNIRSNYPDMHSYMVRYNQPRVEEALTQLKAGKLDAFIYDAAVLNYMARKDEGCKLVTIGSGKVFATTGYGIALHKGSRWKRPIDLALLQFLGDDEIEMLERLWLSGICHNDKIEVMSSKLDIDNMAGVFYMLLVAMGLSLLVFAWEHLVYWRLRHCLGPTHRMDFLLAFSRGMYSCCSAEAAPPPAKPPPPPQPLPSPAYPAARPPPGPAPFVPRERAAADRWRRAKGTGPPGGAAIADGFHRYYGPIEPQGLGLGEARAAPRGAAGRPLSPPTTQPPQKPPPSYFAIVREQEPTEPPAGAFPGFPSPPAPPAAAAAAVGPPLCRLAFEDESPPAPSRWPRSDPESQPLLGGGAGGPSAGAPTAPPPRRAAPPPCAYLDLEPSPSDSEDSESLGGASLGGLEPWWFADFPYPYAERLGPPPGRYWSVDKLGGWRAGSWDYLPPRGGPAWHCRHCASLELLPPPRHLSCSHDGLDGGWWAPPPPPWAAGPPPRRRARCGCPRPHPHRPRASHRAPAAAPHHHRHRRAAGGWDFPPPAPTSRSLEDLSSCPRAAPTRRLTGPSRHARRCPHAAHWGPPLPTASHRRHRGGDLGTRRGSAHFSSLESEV
Method: as §1, §2

[5] = target: T5, recombinant rat GluN1/GluN2C (Rattus norvegicus, UniProt P35439+Q00961); test: Two-electrode voltage-clamp (TEVC) recordings in Xenopus laevis oocytes, GluN1/GluN2C
T5 construct: expressed in transfected cells; host or cells: Xenopus laevis oocytes (Ecocyte) injected with in vitro transcribed cRNA
Method: as §1, §2

[6] = target: T6, recombinant rat GluN1/GluN2D (Rattus norvegicus, UniProt P35439+Q62645); test: Two-electrode voltage-clamp (TEVC) recordings in Xenopus laevis oocytes, GluN1/GluN2D
T6 construct: expressed in transfected cells; host or cells: Xenopus laevis oocytes (Ecocyte) injected with in vitro transcribed cRNA
T6 sequence (Q62645 28-1323, other chains not shown): as above
Method: as §1, §2

[7] = fitted when potentiation at 30 μM exceeded 120%, Tables 3, 5-7, read-out: EC50 (max.) (μM %) GluN2B: fitted EC50
[8] = maximum potentiation, response without modulator = 100%, read-out: GluN2B EC50 (μM)/Max %: Max %
[9] = percentage of the initial glutamate (100 μM) and glycine (30 μM) current, read-out: EC50 (max.) (μM %) GluN2B: fitted maximum response
[10] = fitted when potentiation at 30 μM exceeded 120%, Tables 3, 5-7, read-out: EC50 (max.) (μM %) GluN2C: fitted EC50
[11] = maximum potentiation, response without modulator = 100%, read-out: GluN2C EC50 (μM)/Max %: Max %
[12] = percentage of the initial glutamate (100 μM) and glycine (30 μM) current, read-out: EC50 (max.) (μM %) GluN2C: fitted maximum response
[13] = maximum potentiation, response without modulator = 100%, read-out: GluN2D EC50 (μM)/Max %: Max %
[14] = Tables 11-13, read-out: EC50 & Max Effect: 2D
[15] = Tables 11-13, read-out: EC50 & Max Effect: 2D Max (%)
[16] = Tables 11-13, read-out: EC50 & Max Effect: 2C
[17] = Tables 11-13, read-out: EC50 & Max Effect: 2C Max (%)
[18] = untitled tables after drawing 25 and drawing 36, read-out: EC50 (μM) GluN2D
[19] = untitled tables after drawing 25 and drawing 36, read-out: EC50 (μM) GluN2C
[20] = untitled tables after drawing 25 and drawing 36, read-out: EC50 (μM) GluN2B
[21] = read-out: EC50 & Max Effect: 2D Max (%)
[22] = read-out: EC50 & Max Effect: 2C Max (%)

CCOc1ccc(OCC2c3ccc(OC(C)C)cc3CCN2C(=O)c2cccc(F)c2)cc1 (centres unmarked) [1180-87]
I30 μM/Icontrol (mean ± SEM, %) GluN2C [1]: 103%
I30 μM/Icontrol (mean ± SEM, %) GluN2B [2]: 151%
EC50 [3, 7]: 2.8 µM
Emax [3, 8]: 152%
Emax [3, 9]: 152%

CCOc1ccc(OCC2c3ccc(OC(C)C)cc3CCN2C(=O)c2ccc(Cl)c(Cl)c2)cc1 (centres unmarked) [1180-103]
I30 μM/Icontrol (mean ± SEM, %) GluN2D [4]: 101%
I30 μM/Icontrol (mean ± SEM, %) GluN2C [1]: 134%
EC50 [5, 10]: 0.65 µM
Emax [5, 11]: 137%
Emax [5, 12]: 139%
I30 μM/Icontrol (mean ± SEM, %) GluN2B [2]: 120%
EC50 [3, 7]: 1.4 µM
Emax [3, 8]: 130%
Emax [3, 9]: 134%

COc1ccc(OCC2c3ccc(N(C)C)cc3CCN2C(=O)c2cccc(Cl)c2)cc1 (centres unmarked) [1180-104]
Emax [6, 13]: 349%
Emax [5, 11]: 315%
Emax [3, 8]: 132%

CCOc1ccc(OCC2c3ccc(OC4CCCC4)cc3CCN2C(=O)c2cccc(F)c2)cc1 (centres unmarked) [1180-112]
EC50 [6, 14]: 4.2 µM
Emax [6, 15]: 157%
EC50 [5, 16]: 4.1 µM
Emax [5, 17]: 170%

CCOc1ccc(OCC2c3ccc(OC(C)C)cc3CCN2C(=O)c2ccc(F)c(Cl)c2)cc1 (centres unmarked) [1180-144]
Emax [6, 13]: 135%
Emax [5, 11]: 175%
Emax [3, 8]: 182%

CCOc1ccc(OCC2c3ccc(OC(C)C)cc3CCN2C(=S)c2cccc(Cl)c2)cc1 (centres unmarked) [1180-149]
Emax [6, 13]: 145%
Emax [5, 11]: 179%
Emax [3, 8]: 184%

CCOc1ccc(OCC2c3ccc(OC(C)C)cc3CCN2C(=S)c2cccc(Br)c2)cc1 (centres unmarked) [1180-156]
Emax [6, 13]: 130%
Emax [5, 11]: 161%
Emax [3, 8]: 187%

COc1ccc(OCC2c3ccc(N(C)C)cc3CCN2C(=S)c2cccc(Cl)c2)cc1 (centres unmarked) [1180-167]
Emax [6, 13]: 127%
Emax [5, 11]: 134%

CCOc1ccc(OCC2c3ccc(OC(C)C)cc3CCN2C(=S)Nc2cccc(Cl)c2)cc1 (centres unmarked) [1180-210]
Emax [6, 13]: 174%
Emax [5, 11]: 173%

COc1ccc(OCC2c3ccc(OC)cc3CCN2C(=O)c2ccc(Cl)o2)cc1 (centres unmarked) [1180-234]
EC50 [6, 18]: 5.5 µM
EC50 [5, 19]: 2.6 µM
GluN2B response % at 30 µM [2]: 107% at 30

COc1ccc(OCC2c3ccc(OC)cc3CCN2C(=O)c2ccc(Cl)s2)cc1 (centres unmarked) [1180-239]
EC50 [6, 18]: 1 µM
EC50 [5, 19]: 0.9 µM
EC50 [3, 20]: 1.6 µM

COc1ccc(OCC2c3ccc(OC)cc3CCN2C(=O)CCCC(F)(F)F)cc1 (centres unmarked) [1180-252]
EC50 [6, 18]: 14 µM
EC50 [5, 19]: 11 µM
GluN2B response % at 30 µM [2]: 96% at 30

CC(C)Oc1ccc(OCC2c3ccc(OC(C)C)cc3CCN2C(=S)c2cccc(Cl)c2)cc1 (centres unmarked) [1180-265]
EC50 [6, 18]: 0.4 µM
EC50 [5, 19]: 0.3 µM
EC50 [3, 20]: 0.6 µM

CCOc1ccc(OC[C@H]2c3ccc(OC(C)C)cc3CCN2C(=S)c2cccc(F)c2)cc1 [(R)-(+)-1180-154]
I30 μM/Icontrol (mean ± SEM, %) GluN2D [4]: 74%
I30 μM/Icontrol (mean ± SEM, %) GluN2C [1]: 58%
I30 μM/Icontrol (mean ± SEM, %) GluN2B [2]: 95%

COc1ccc(OC[C@H]2c3ccc(OC(C)C)cc3CCN2C(=S)c2cccc(Cl)c2)cc1 [(R)-(+)-1180-163]
I10 μM/Icontrol (mean ± SEM, %) GluN2D ([4]; 10 μM compound, Table 3): 215%
EC50 ([6]; fitted when potentiation at 30 μM exceeded 120%, Tables 3, 5-7, read-out: EC50 (max.) (μM %) GluN2D: fitted EC50): 2.3 µM
Emax ([6]; percentage of the initial glutamate (100 μM) and glycine (30 μM) current, read-out: EC50 (max.) (μM %) GluN2D: fitted maximum response): 255%
I10 μM/Icontrol (mean ± SEM, %) GluN2C ([1]; 10 μM compound, Table 3): 252%
Emax [5, 12]: 252%
I10 μM/Icontrol (mean ± SEM, %) GluN2B ([2]; 10 μM compound, Table 3): 121%

CCOc1ccc(OC[C@@H]2c3ccc(OC(C)C)cc3CCN2C(=O)c2cccc(F)c2)cc1 [(S)-(−)-1180-87]
I30 μM/Icontrol (mean ± SEM, %) GluN2D [4]: 119%
I30 μM/Icontrol (mean ± SEM, %) GluN2C [1]: 131%
EC50 [5, 10]: 7.6 µM
Emax [5, 12]: 132%
I30 μM/Icontrol (mean ± SEM, %) GluN2B [2]: 195%
EC50 [3, 7]: 6.7 µM
Emax [3, 9]: 206%

CCOc1ccc(OC[C@@H]2c3ccc(OC(C)C)cc3CCN2C(=O)c2cccc(C(F)(F)F)c2)cc1 [(S)-(−)-1180-92]
I30 μM/Icontrol (mean ± SEM, %) GluN2D [4]: 116%
I30 μM/Icontrol (mean ± SEM, %) GluN2C [1]: 132%
EC50 [5, 10]: 1.2 µM
Emax [5, 12]: 141%
I30 μM/Icontrol (mean ± SEM, %) GluN2B [2]: 207%
EC50 [3, 7]: 1.9 µM
Emax [3, 9]: 210%

CCOc1ccc(OC[C@@H]2c3ccc(OC(C)C)cc3CCN2C(=O)c2ccc(Cl)c(Cl)c2)cc1 [(S)-(−)-1180-103]
I30 μM/Icontrol (mean ± SEM, %) GluN2D [4]: 102%
GluN2D potentiation at 3 μM ([4]; at 3 μM, footnote c of Table 7): exceeded 120%
I30 μM/Icontrol (mean ± SEM, %) GluN2C [1]: 114%
GluN2C potentiation at 3 μM ([1]; at 3 μM, footnote c of Table 7): exceeded 120%
I30 μM/Icontrol (mean ± SEM, %) GluN2B [2]: 153%
EC50 [3, 7]: 0.94 µM
Emax [3, 9]: 163%

CCOc1ccc(OC[C@@H]2c3ccc(OC(C)C)cc3CCN2C(=S)c2cccc(C(F)(F)F)c2)cc1 [(S)-(−)-1180-168]
I30 μM/Icontrol (mean ± SEM, %) GluN2D [4]: 87%
I30 μM/Icontrol (mean ± SEM, %) GluN2C [1]: 87%
I30 μM/Icontrol (mean ± SEM, %) GluN2B [2]: 95%

COc1ccc(OC[C@@H]2c3cc(OC)c(OC)cc3CCN2C(=O)c2cccc(Cl)c2)cc1 [S-1390]
Emax [6, 21]: 299%
EC50 ([5]; EC50 & Max Effect: 2C (μM)): 6.1 µM
Emax [5, 22]: 275%

COc1ccc(OCC2c3cc(C)c(C)cc3CCN2C(=O)c2cccc(Br)c2)cc1 (centres unmarked) [drawing 33 R1=Br R2=H R3=H R4=Me R5=Me]
Emax [6, 15]: 211%
Emax [5, 17]: 197%

COc1ccc(OCC2c3ccc(N(C)C)cc3CCN2C(=O)c2cccc(Br)c2)cc1 (centres unmarked) [drawing 33 R1=Br R2=H R3=H R4=NMe2 R5=H]
Emax [6, 15]: 327%
Emax [5, 17]: 293%

COc1ccc(OCC2c3ccc(OCc4ccccc4)cc3CCN2C(=O)c2cccc(Br)c2)cc1 (centres unmarked) [drawing 33 R1=Br R2=H R3=H R4=OBn R5=H]
EC50 ([6]; EC50 & Max Effect: 2D (μM)): 0.27 µM
Emax [6, 21]: 219%
EC50 ([5]; EC50 & Max Effect: 2C (μM)): 0.31 µM
Emax [5, 22]: 257%

COc1ccc(OCC2c3ccc(SCc4ccccc4)cc3CCN2C(=O)c2cccc(Cl)c2)cc1 (centres unmarked) [drawing 33 R1=Cl R2=H R3=H R4=SBn R5=H]
EC50 [6, 14]: 0.43 µM
Emax [6, 15]: 213%
EC50 [5, 16]: 0.4 µM
Emax [5, 17]: 226%

COc1ccc(OCC2c3cc(OC)c(OC)cc3CCN2C(=O)c2ccccc2)cc1 (centres unmarked) [drawing 33 R1=H R2=H R3=H R4=OMe R5=OMe]
EC50 [6, 14]: 11.4 µM
Emax [6, 15]: 156%
EC50 [5, 16]: 12.3 µM
Emax [5, 17]: 450%
